Six compounds from US20120122692A1, “Method and Formulation for Eliminating Moss with Oregano Oil” (priority 2006, published 2012) can be followed below.

One data set has as its system silvery thread moss. In words: Field test of spray treatments on silvery thread moss in a creeping bentgrass putting green: percent moss cover. Format: in vivo, Bryum argenteum. How it is done:
(§1) Aqueous solutions of oregano oil extract were tested on silvery thread moss growing on turf grass. The turf grass was a mature stand of “Penncross” creeping bentgrass Agrostis stolonifera L. on a sand based rootzone. IA grid of six inch square plots were arranged on the turf. Each plot was initially rated for percent moss cover on July, 2006. Only plots with greater than 50% moss cover tracked for this test. Table 1 summarized the 79 treatments tested. Oregano oil extract formulations were compared with carefentrazone and a non-treated control. Several oregano oil formulation includes a surfactant, and these formation are marked as ORG AS, ORG BS, ORG CS, and ORG DS. Each formulation was applied as a squirt or pump from a spray bottle containing the formulation. The spray bottle used was one quart bottle that delivered 2.8 ml per pump onto a four inch square are. All of the formulations were applied at least once on Jul. 6, 2006. Sequential applications were also additionally performed bi-weekly on Jul. 20, Aug. 17 and Sep. 12, 2006 for a total of one, three, or four bi-weekly application. Each carefentrazone application was made at a recommended rate of 6.7 fl. Oz. product/A.
(§2) The data from the test were analyzed using PROC ANOVA of the SAS software, Version 8 of the SAS System for Windows (SAS Institute, 1999). Means were separated (alpha=0.05) by Fischer's protected LSD (Fischer, 1966). Turf quality was rated on a scale of 1-10, where 10=best turf with no phyoxicity, 6=lowest acceptable turf quality and turf phytotoxicity, 1=worst turf quality with most phytotosixity and completely brown turf.

Data set [1] has as its system “Penncross” creeping bentgrass Agrostis stolonifera L. Briefly: Field test of spray treatments on a creeping bentgrass putting green: turf quality / phytotoxicity rating. Format: in vivo. Conditions: scale 1-10: 10=best turf, no phytotoxicity, 6=lowest acceptable, 1=completely brown turf. The procedure:
as §1, §2

Turning to `Cc1nn(-c2cc(CC(Cl)C(=O)O)c(Cl)cc2F)c(=O)n1C(F)F` (stereo not drawn) [Treatment E11, Carfentrazone], the “% Moss Cover” value in the data set with silvery thread moss (9 Oct (Oct. 9, 2006)) is 48.0%; in the data set on silvery thread moss (12 Sep), 66.0%; with silvery thread moss (17 Aug), 60.0%. The “Turf Quality” value in data set [1] (9 Oct), in data set [1] (12 Sep) and in data set [1] (17 Aug) was 10.0 in each case.
Regarding `Cc1nn(-c2cc(CC(Cl)C(=O)O)c(Cl)cc2F)c(=O)n1C(F)F` (stereo not drawn) [ES13, Carfentrazone], the “% Moss Cover” value came to 63.0% in the data set on silvery thread moss (9 Oct (Oct. 9, 2006)); 75.0% with silvery thread moss (12 Sep); 81.8% with silvery thread moss (17 Aug). For the same compound, the “Turf Quality” value in data set [1] (9 Oct), in data set [1] (12 Sep) and in data set [1] (17 Aug) was 10.0 throughout.
On to `Cc1nn(-c2cc(CC(Cl)C(=O)O)c(Cl)cc2F)c(=O)n1C(F)F` (stereo not drawn) [Treatment E13, Carfentrazone], for which the “% Moss Cover” value worked out at 70.8% in the data set with silvery thread moss (9 Oct (Oct. 9, 2006)); 73.8% in the data set with silvery thread moss (12 Sep); 68.8% in the data set with silvery thread moss (17 Aug). In addition, the “Turf Quality” value in data set [1] (9 Oct) is given as 10.0; in data set [1] (12 Sep) it was 10.0; in data set [1] (17 Aug) it was 9.6.
For the compound `Cc1nn(-c2cc(CC(Cl)C(=O)O)c(Cl)cc2F)c(=O)n1C(F)F` (stereo not drawn) [ES16, Carfentrazone], the “% Moss Cover” value with silvery thread moss (9 Oct (Oct. 9, 2006)) was 55.8%; in the data set on silvery thread moss (12 Sep) it was 61.8%; in the data set on silvery thread moss (17 Aug), 55.8%. Besides, the “Turf Quality” value in data set [1] (9 Oct), in data set [1] (12 Sep) and in data set [1] (17 Aug) was 10.0 throughout.
With `Cc1nn(-c2cc(CC(Cl)C(=O)O)c(Cl)cc2F)c(=O)n1C(F)F` (stereo not drawn) [Treatment E16, Carfentrazone], the “% Moss Cover” value in the data set on silvery thread moss (9 Oct (Oct. 9, 2006)) is recorded as 55.0%; with silvery thread moss (12 Sep) it was 59.0%; in the data set on silvery thread moss (17 Aug), 58.0%. For the same compound, the “Turf Quality” value in data set [1] (9 Oct) is given as 9.6; in data set [1] (12 Sep), 10.0; in data set [1] (17 Aug), 10.0.
For the compound `Cc1nn(-c2cc(CC(Cl)C(=O)O)c(Cl)cc2F)c(=O)n1C(F)F` (stereo not drawn) [ES11, Carfentrazone], the “% Moss Cover” value came out at 77.0% in the data set with silvery thread moss (9 Oct (Oct. 9, 2006)); 65.8% in the data set on silvery thread moss (12 Sep); 82.0% in the data set with silvery thread moss (17 Aug). In addition, the “Turf Quality” value in data set [1] (9 Oct), in data set [1] (12 Sep) and in data set [1] (17 Aug) was 10.0 throughout.
